According to BindingDB's records for doi:10.1016/S1074-5521(01)00079-5 (State University of New York, 2001):

Target: HIV-1 protease (Human immunodeficiency virus, UniProt O90785)
Assay: Enzyme Inhibition Assay

Sequence of HIV-1 protease (O90785 whole entry): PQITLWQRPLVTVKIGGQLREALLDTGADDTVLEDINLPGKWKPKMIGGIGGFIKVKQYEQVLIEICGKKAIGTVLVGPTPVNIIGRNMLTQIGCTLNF

Row | Ki [µM] | SMILES
1 | 3.2 | O=C(NCc1ccccc1)[C@H](Cc1ccccc1)CC(O)C[C@@H](Cc1ccccc1)C(=O)NCc1ccccc1 [Carbinol, 18a]
2 | 0.0038 | O=C(NC1c2ccccc2CC1O)[C@H](Cc1ccccc1)CC(O)C[C@@H](Cc1ccccc1)C(=O)NC1c2ccccc2CC1O (stereo partly drawn) [Carbinol, 18b]

Row | SMILES | Ki [µM]
3 | O=C(NCc1ccccc1)[C@H](Cc1ccccc1)C[Si](O)(O)C[C@@H](Cc1ccccc1)C(=O)NCc1ccccc1 [Silanediol, 17a] | 3.2
